Source: publication PMC13462928 (Nature Communications, 2026)
Entries after “also recorded” stand apart in the source; their conditions may differ.

Assays:
[1] = test system: HAP1 cells; assay: Titration of NUDT5 degraders and controls against fixed 6-TG (2 µg/mL) in HAP1 cells, cell viability; type: cell-based, human; details: for concentration of maximal rescue of cell viability / rescue of 6-TG-induced toxicity: HAP1, 2 µg/mL 6-TG, 72 h
Experimental: (§1) Cells were counted and adjusted to a density of 25,000 cells/mL in culture medium. […] Plates were sealed with breathable film and incubated at 37 °C with 5% CO₂ for 72 hours. Cell viability was assessed using the CellTiter-Glo Luminescent Cell Viability Assay, following the manufacturer’s protocol (Promega). Luminescence was measured using a PHERAstar FS or FSX plate reader, and data were analyzed using GraphPad Prism software (versions 9 or 10). Results were normalized to the vehicle control (DMSO).

[2] = biological target: T1, NUDT5 (Homo sapiens, UniProt Q9UKK9); assay: Western blot NUDT5 degradation in HEK293 cells; type: cell-based; details: 20 h, Western blot, read-out: DC50 (half-maximal degradation concentration) of NUDT5
Experimental: (§2) Pellets were lysed on ice using RIPA buffer (25 mM Tris (pH 7.5), 150 mM NaCl, 1% Igepal, 1% SDS, 0.1% SDC, 1x protease inhibitor (Roche, cOmplete mini, 11836170001), 1x phosphatase (Thermo Scientific, Halt, 78429), 0.1% benzonase (Merck, E1014-5KU)), incubated for 15 min and then centrifuged for 20 min at 4 °C at maximum speed in a table-top centrifuge. […] Membranes were blocked with 6% milk in PBS-T for 1 h at RT, washed, and then incubated with primary antibody diluted in PBS-T supplemented with 0.1% NaN3 overnight at 4 °C. Membranes were incubated with fluorophore-conjugated secondary antibodies, Alexa Fluor 680 anti-rabbit IgG (Life Technologies, A21109), Alexa Fluor 750 anti-mouse IgG (Life Technologies, A21037) diluted 1:5000 in 2% milk PBS-T, washed and imaged with an Odyssey imager (Licor).

[3] = biological target: T2, NUDT5 (Homo sapiens, UniProt Q96SW2+Q9UKK9); assay: Western blot NUDT5 degradation in HEK293 cells; type: cell-based; details: for Dmax: 20 h, read-out: apparent Dmax of NUDT5 degradation
Experimental: as §2

[4] = test system: HEK293 cells; assay: Untargeted global proteomics of HEK293 cells; type: cell-based, human; details: 100 nM, 24 h; for total proteome analysis, downregulated proteins: 7135 quantified proteins
Experimental: (§3) Proteomics samples were digested with trypsin using STrap columns following the manufacturer’s protocol (C02-micro, ProtiFi). […] Then, the cell pellets were collected and lysed in 5% SDS containing 1 μL/mL benzonase (E1014, Millipore) and subsequently short sonication to shear genomic DNA (1×2 s pulse, 20% amplitude, microtip, Sonics Vibra Cell). 50 μg protein from the total cell lysate or 80% of the elution fraction of the chemical pulldown were first reduced by 20 mM dithiothreitol (M02712, Fluorochem), and alkylated by 40 mM iodoacetamide (I1149, Sigma). Phosphoric acid and S-Trap protein binding buffer were added to the sample lysates. Then, the SDS lysate/S-Trap buffer were loaded into a S-Trap column (C02-micro-80, ProtiFi). 1 μg of trypsin (V5111, Promega) was used to digest each sample at 37 °C for 20 h. The samples were then eluted and dried by vacuum centrifugation. Peptide pellets were resuspended in mass spectrometry-grade water with 2% acetonitrile (85188, Thermo Scientific) and 0.1% trifluoroacetic acid (85183, Thermo Scientific). The samples were injected into Orbitrap Fusion Lumos Tribrid Mass Spectrometer (Thermo Scientific). Sample acquisition was performed as previously described.
Raw data were searched against the human database (UP000005640, downloaded 08/21) using DIA-NN (v.1.8.1)[48] by enabling FASTA digest for library-free search and Deep learning-based spectra, RTs, and IMs prediction. Trypsin/P was selected for the in silico digestion of the provided FASTA file, allowing up to 2 missed cleavages. Fixed modifications included N-terminal methionine excision and cysteine carbamidomethylation. Variable modifications were methionine oxidation and N-terminal acetylation, with a maximum of one modification per precursor. Precursor FDR was kept at 1% and MBR enabled. The protein groups matrix was further analysed using Perseus (2.0.9.0)[49] or R studio (4.3.2). Potential contaminants were filtered against the top 300 most common Homo sapiens contaminants reported in CRAPome[50]. Proteins were removed if detected less than 70% across all runs. After column-wise normalisation by median subtraction, missing values were imputed by random numbers from a normal distribution (1.8 standard deviation, downshift width 0.3). Volcano plots were generated by calculating fold change and -log10(p-value) from an unpaired two-sided Student’s t-test.

[5] = biological target: NUDT5 and the respective E3 ligase (Homo sapiens, UniProt P40337+Q9UKK9); assay: NanoBRET ternary complex formation assay NUDT5 and the respective E3 ligase (VHL or CRBN) in HEK293 cells; type: cell-based; details: Supplementary Table 2; for Ternary complex formation below 1 µM (4 h): HEK293, 4 h; for Ternary complex formation below 1 µM (20 h): HEK293, 20 h
Chain of NUDT5 and the respective E3 ligase (P40337 whole entry, one chain of several): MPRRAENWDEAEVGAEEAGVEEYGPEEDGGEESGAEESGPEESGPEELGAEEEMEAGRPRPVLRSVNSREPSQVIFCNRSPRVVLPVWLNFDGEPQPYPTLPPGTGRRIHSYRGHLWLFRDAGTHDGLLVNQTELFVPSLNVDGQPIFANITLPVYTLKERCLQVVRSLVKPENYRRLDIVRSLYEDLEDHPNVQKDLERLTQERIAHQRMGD
Experimental: (§4) NanoBRET ternary complex assays were performed following the manufacturer’s instructions (Promega). […] After 4 h or 20 h of incubation, a mix of substrate in assay medium was added to each well. Donor and acceptor signals were measured in a PHERAstar FSX or FS plate reader and analyzed by GraphPad Prism (v.9 or v.10). The acceptor/donor ratio was calculated, the no ligand background signal was subtracted, and multiplied by 1000 to yield mBRET units. Data were then normalized to DMSO.

[6] = biological target: T2, NUDT5; assay: Western blot NUDT5 degradation in HEK293 CRBN KO cells; type: cell-based; set-up: endogenous in cells; host or cells: HEK293 (CRBN KO); details: 100 nM, 20 h
Experimental: as §2

[7] = test system: HAP1 cell lines; assay: TH1760/6-TG cell viability assay in HAP1 cell lines; type: cell-based, human
Experimental: After 72 h incubation, cell viability was measured using the CellTiter-Glo assay (Promega). Signals were normalized to the control condition.

[8] = test system: HAP1 NUDT5 KO cells; assay: Cell viability (CellTiter-Glo) 6-TG assay in HAP1 NUDT5 KO cells; type: cell-based, human; details: Fig. 1A
Experimental: (§5) HEK293, MCF7, A549 were cultured in DMEM + 10% FBS, HAP1 and HL-60 were cultured in IMDM + 10% FBS. All cell lines were maintained at 37 °C and 5% CO2.
as §1

[9] = test system: HAP1 cells; assay: Cell viability (CellTiter-Glo) and 6-TG assay in HAP1 WT cells; type: cell-based, human
Experimental: as §5, §1

[10] = test system: HL-60 cells; assay: Cell viability (CellTiter-Glo) 6-TG assay in HL-60 cells; type: cell-based, human
Experimental: as §5, §1

[11] = biological target: T1, NUDT5; assay: NanoBRET NUDT5 target engagement (TE) assay in HEK293 cells; type: cell-based; set-up: expressed in transfected cells; host or cells: HEK293; details: for EC50: HEK293 cells, Supplementary Fig. 6B, read-out: NUDT5 NanoBRET target engagement EC50
[12] = biological target: T2, NUDT5; assay: Western blot NUDT5 degradation in A549 cells; type: cell-based; set-up: endogenous in cells; host or cells: HAP1, A549, MCF7; details: A549, MCF7 and HAP1, 100 nM, 20 h
Experimental: as §2

[13] = biological target: T3, NUDT5 and CRBN (Homo sapiens, UniProt Q96SW2+Q9UKK9); assay: NanoBRET ternary complex formation assay NanoLuc-NUDT5 / HaloTag-CRBN in HEK293 cells; type: cell-based; details: intact HEK293 cells
T3 construct: expressed in transfected cells; host or cells: HEK293
Experimental: as §4

[14] = test system: HAP1 cells; assay: Metabolomics with isotopically labeled formate/adenosine in HAP1 cells; type: cell-based, human; details: HAP1, 100 nM, 13C-D formate 1 mM, 15N adenosine 100 µM, 24 h
Experimental: Experiments were performed in duplicates. Approximately 1.5 × 10^6 HAP1 wt and NUDT5 KO cells were seeded in IMDM (full) prior to treatment with isotopically labeled metabolites. […] After 24 h, plates were washed with PBS and replaced with IMDM containing dialysed FBS (Gibco). Cells were treated with 1 mM of isotopically labeled sodium formate (Eurisotop, CDLM-6203-0.25) or with 1 mM of isotopically labeled sodium and 100 µM isotopically labeled adenosine (Silantes, 125303601). After 24 h, 5 × 10^6 cells for each replicate was harvested, washed with PBS, immediately snap frozen and stored at −80 °C. Cell pellets were lysed with 150 µL ice-cold 80:20 MeOH:H2O, vortexed and sonicated for 5 minutes on ice. The extract was centrifuged for 10 minutes at 10,000 × g at 4 °C and the supernatant was collected in a glass insert vial. This procedure was repeated and the two supernatants were combined. Solvent was evaporated in a vacuum concentrator. Metabolites were reconstituted in 50 µL pure MeOH. A Vanquish UHPLC system (Thermo Scientific) coupled with an Orbitrap Q Exactive (Thermo Scientific) mass spectrometer was used for the LC-MS analysis. […] Quantification of target metabolites was performed by manually integrating the area under the curve, and data were plotted using GraphPad Prism v.10.

[15] = biological target: T4, ZFP91 (Homo sapiens, UniProt Q96JP5); assay: Western blot of ZFP91 levels in HEK293 and HAP1 cells; type: cell-based; details: 100 nM, 24 h
T4 construct: endogenous in cells; host or cells: HEK293 and HAP1
Experimental: as §2

[16] = biological target: T1, NUDT5; assay: Western blot NUDT5 degradation in HAP1 cells; type: cell-based; set-up: endogenous in cells; host or cells: HAP1; details: HAP1 cells, Western blot; read-out: DC50 (half-maximal degradation concentration) of NUDT5
Experimental: as §2

[17] = biological target: T2, NUDT5; assay: Western blot NUDT5 degradation in HAP1 cells; type: cell-based; set-up: endogenous in cells; host or cells: HAP1
Experimental: as §2

[18] = test system: HAP1 cells; assay: Untargeted global proteomics of HAP1 cells; type: cell-based, human; details: 100 nM, 6 h and 24 h
Experimental: as §3, with “Peptide pellets were resuspended in mass spectrometry-grade water with 2% acetonitrile (85188, Thermo Scientific) and 0.1% trifluoroacetic acid (85183, Thermo Scientific). The samples were injected into Orbitrap Fusion Lumos Tribrid Mass Spectrometer (Thermo Scientific). Sample acquisition was performed as previously described.” left out
Raw data were searched against the human database (UP000005640, downloaded 08/21) using DIA-NN (v.1.8.1)[48] by enabling FASTA digest for library-free search and Deep learning-based spectra, RTs, and IMs prediction. […] The protein groups matrix was further analysed using Perseus (2.0.9.0)[49] or R studio (4.3.2). […] Proteins were removed if detected less than 70% across all runs. […]

Row | SMILES | DC50 [2] [nM] | Dmax ([3]; Western blot) [%] | Ternary complex formation below 1 µM (4 h) [5] | Ternary complex formation below 1 µM (20 h) [5] | EC50 [11] [nM] | concentration of maximal rescue of cell viability [1] [nM] | effect on ZFP91 in global proteomics [4] | total proteome analysis, downregulated proteins [4] | NUDT5 degradation in CRBN knockout cells [6] | rescue of 6-TG-induced toxicity [1] | other results
1 | Cn1c(=O)c2c(nc(N3CCN(C(=O)CCOCCOCCOCCNc4cccc5c4C(=O)N(C4CCC(=O)NC4=O)C5=O)CC3)n2Cc2nnc(-c3ccc(Cl)c(Cl)c3)o2)n(C)c1=O (stereo not drawn) [ASM127] | 12 | 71 | Yes | Yes |  | 50 to 100 | slight effect on the zinc finger protein ZFP91 | NUDT5 as the most significantly downregulated protein | CRBN knockout (KO) prevents PROTAC-mediated degradation of NUDT5 |  | 
2 | Cn1c(=O)c2c(nc(N3CCN(C(=O)CCOCCOCCOCCOCCNc4cccc5c4C(=O)N(C4CCC(=O)NC4=O)C5=O)CC3)n2Cc2nnc(-c3ccc(Cl)c(Cl)c3)o2)n(C)c1=O (stereo not drawn) [ASM130] | 7 | 75 | Yes | Yes |  | 50 to 100 | slight effect on the zinc finger protein ZFP91 | NUDT5 as the most significantly downregulated protein | CRBN knockout (KO) prevents PROTAC-mediated degradation of NUDT5 |  | 
3 | Nc1nc2nc[nH]c2c(=S)[nH]1 [Compound 6-TG, 6-Thioguanine] |  |  |  |  |  |  |  |  |  |  | difference in 6-TG sensitivity, NUDT5 KO versus WT ([7]; HAP1, fixed TH1760 50 µM, 72 h, Fig. 4D): 2.8 fold; IC50 ([7]; Homo sapiens, HAP1 WT cells, approximately): ~1000 nM; increase in 6-TG IC50, NUDT5 KO versus NUDT5 WT [8]: four-fold increase

Further lines, with some results ahead:

Row | DC50 [2] [nM] | Dmax ([3]; Western blot) [%] | Ternary complex formation below 1 µM (4 h) [5] | Ternary complex formation below 1 µM (20 h) [5] | EC50 [11] [nM] | SMILES | concentration of maximal rescue of cell viability [1] [nM] | effect on ZFP91 in global proteomics [4] | total proteome analysis, downregulated proteins [4] | NUDT5 degradation in CRBN knockout cells [6] | rescue of 6-TG-induced toxicity [1] | other results
4 |  |  |  |  | 3 | Cn1c(=O)c2c(nc(N3CCNCC3)n2Cc2nnc(-c3ccc(Cl)c(Cl)c3)o2)n(C)c1=O [TH5427, reference compound] |  |  |  |  | failed to rescue cell viability; also recorded: no signiﬁcant eﬀect | ability to desensitize cells to 6-TG treatment (phenocopy NUDT5 KO) [9]: neither inhibitor was able to phenocopy the NUDT5 KO; ability to desensitize cells to 6-TG treatment (phenocopy NUDT5 KO) [10]: neither inhibitor was able to phenocopy the NUDT5 KO
5 | 0.5 |  |  |  | 37 | Cn1c(=O)c2c(nc(N3CCN(C(=O)N4CCC(CN5CCN(c6ccc7c(c6)C(=O)N(C6CCC(=O)NC6=O)C7=O)CC5)CC4)CC3)n2Cc2nnc(-c3ccc(Cl)c(Cl)c3)o2)n(C)c1=O (stereo not drawn) [dNUDT5] | 50 to 100 |  |  |  | most efficient compound in abrogating 6-TG-induced cell death | NUDT5 downregulation across a panel of cell lines [12]: robust and consistent NUDT5 downregulation; boost of cancer cell viability in presence of 6-TG compared to TH5427 and DMSO control ([1]; peer review file): more than 8 fold; ternary complex formation between NUDT5 and CRBN in cells [13]: only dNUDT5 induced proficient ternary complex formation; de novo derived IMP [14]: apparent increase in de novo derived IMP; mechanism of degradation (rescue by neddylation, proteasome, NUDT5 inhibitors and CRBN KO) [3]: UPS-dependent; NUDT5 degradation ([3]; 100 nM, 6 h, Western blot, Supplementary Fig. 6A): induces degradation of NUDT5; ZFP91 levels [15]: ZFP91 levels remained unchanged; also recorded: does not affect ZFP91 levels; DC50 [16]: 0.3 nM; time course of NUDT5 degradation ([17]; 100 nM, up to 72 h): sustained degradation by dNUDT5 over a time course of 72 h; NUDT5 degradation ([17]; HAP1 cells, Western blot, Fig. 3B): induced robust degradation of endogenous NUDT5 protein; NUDT5 engagement in live cells ([11]; NanoBRET): engaged their cognate target NUDT5 in live cells; global proteome analysis, downregulated proteins [18]: NUDT5 was the only significantly downregulated protein
